Patent US20040097467A1 (priority 2002, published 2004)
Read-outs that look alike come from different tables or passages of the source. Marks after values point to notes of the source that are not given here.

Experiments:
postmenopausal women = conditions: injection, 50 mg twice weekly, 14 months; cited from earlier work
rabbits = conditions: injection or ingestion; cited from earlier work
ovariectomized rats = conditions: oral; cited from earlier work
[1] = tested on: Aortic Rings of Male JCR: LA-cp Rats; experiment: Contractile response of aortic rings to phenylephrine; assay type: in vivo, rat; conditions: for Slope: logistic curve fit, phenylephrine contraction, treated cp/cp rats; for Maximum contraction: phenylephrine, aortic rings from treated cp/cp rats, mean +/− SEM
Excerpt: (§1) The JCR:LA-cp rat is known to spontaneously develop the range of dysfunction and pathophysiology associated with Metabolic Syndrome in humans, e.g., obesity, profound insulin resistance, atherosclerosis with enhanced vascular contractility, and reduced vascular relaxation. In addition, obese male rats spontaneously develop ischemic lesions of the heart and are prone to stress-induced myocardial infarcts that can be fatal. Insulin resistance develops rapidly in young rats between the ages of 4 and 7 weeks and is highly correlated with the cardiovascular disease. […] Consistent with this observation is the presence of glomerular sclerosis in the older rats.
(§2) Male JCR: LA-cp rats are maintained on a reversed light cycle at 3 or 7 weeks of age and acclimatized over a 1-week period. This allows metabolic studies to be conducted under subdued light, during the active (dark) phase of their diurnal cycle.
(§3) The rats are divided into four groups and receive one of the three aforementioned feed concentrations or unsupplemented feed. The dosage is maintained on either a mg/kg body weight basis, in which case the diet is formulated on a weekly basis to ensure each rat receives the intended dose on a mg/kg basis, or the specified concentration in the feed. Food consumption and body weights are measured twice weekly.
(§4) At 13 weeks of age, rats in the fed state are sacrificed under anesthesia with halothane in oxygen, and the following tissues are removed for processing as described below:
(§5) 1. Thoracic aorta for vascular function studies;
(§6) The following parameters are measured: Food intake and body weights, ulin response (through a meal tolerance test), plasma total lipid profile, ratio n to creatinine, plasma levels of leptin, C-reactive protein and tumor necrosis TNFα), vascular function studies on aortic rings (contractility/relaxation), levels and activity of peroxisome proliferator-activated receptors (PPARs), osition of plasma cholesterol esters, liver, pancreas, muscle and adipose phatidylinositol-3 (PI-3) Kinase Signaling. Histological analysis are obtained sclerosis; islet morphometry; liver-hepatic damage and lipid content; and al electron microscopy for lipid).

[2] = tested on: Hearts of Male JCR: LA-cp Rats; experiment: Parameters for Langendorf-perfused hearts: coronary flow, reactive hyperemia, bradykinin response; assay type: in vivo, rat; conditions: hearts of treated cp/cp rats; mean +/− SEM, 10 rats
Excerpt: Samples were taken from Langendorf-perfused hearts of JCR:LA-cp rats, control and arginine-treated.
as §1, §2, §3, §6

[3] = tested on: Aortic Rings of JCR:LA-cp rats; experiment: Relaxant response of aortic rings to acetylcholine; assay type: in vivo, rat; conditions: treated cp/cp rats; for Maximum Relaxation: acetylcholine, rings pre-contracted with phenylephrine; for Slope: logistic curve fit, acetylcholine relaxation
Excerpt: as §1, §2, §3, §4, §5, §6

JCR:LA-cp rat = tested on: JCR:LA-cp rat
Excerpt: as §1, §2, §3
At 12 weeks of age, rats fast over the light (non-active) phase. A fasting blood sample is obtained from the tail and a standardized meal tolerance test (MTT) is performed. Following a 2-day recovery period, the rats are placed in a metabolism cage for 24 hours for the collection of urine.
as §4, §6

[4] = human volunteer, 8 g/l solution, three one-cup servings daily for three days, third-day 24-hour urine
[5] = tested on: subject at risk for bone loss; conditions: 500 mg total per day
overweight subject = conditions: 500 mg total per day, after several weeks
normal rodents = conditions: 1% added to normal diet (1.8% L-Arg content); cited from earlier work
[6] = treatment begun at 4 weeks of age, at 12 weeks, vs control group

C[Si](O)(O)O [monomethyltrisilanol]
increase of femoral density (average) (postmenopausal women): 4.7%
intimal thickening and fragmentation of arterial elastic fibers (rabbits): prevented

orthosilicic acid
bone formation rate (ovariectomized rats): increased
bone turnover (ovariectomized rats): slowed

NCCCC[C@H](N)C(=O)O.O[Si](O)(O)O [lysine silicate]
intimal thickening and fragmentation of arterial elastic fibers (rabbits): prevented

N=C(N)NCCC[C@H](N)C(=O)O.O[Si](O)(O)O [arginine silicate]
Slope [1]: −1.01 +/− 0.17
Maximum contraction [1]: 1.44 ± 0.07 g
Bradykinin response Maximum response relative flow [2]: 1.95 +/− 0.40
Coronary flow [2]: 10.8 ± 0.4 mL/min
Reactive hyperemia [2]: 186 +/− 25.3* %
Maximum Relaxation [3]: 97.1 +/− 4.0%
Slope [3]: −0.729 +/− 0.105
bradykinin response (FIG. 1) (JCR:LA-cp rat; coronary blood flow, FIG. 1): improved
metabolic syndrome and cardiovascular disease (CVD) symptoms (JCR:LA-cp rat; dietary supplementation, compared to controls): reduced
increases in serum insulin concentration (JCR:LA-cp rat; [6]): reduced
increases in urinary albumin excretion (JCR:LA-cp rat; [6]): reduced
body weight (JCR:LA-cp rat; vs control animals): reduction
coronary risk lipids and lipoprotein concentrations (JCR:LA-cp rat; vs control animals): reduction
endothelial function (JCR:LA-cp rat; vs control animals): improved
gene expression and PPAR (α, γ) activity (JCR:LA-cp rat; vs control animals): enhanced
glomerular sclerosis (JCR:LA-cp rat; vs control animals): decreased
inflammatory markers (JCR:LA-cp rat; vs control animals): decreased levels
insulin resistance (JCR:LA-cp rat; vs control animals): reduction
insulin signaling pathway (JCR:LA-cp rat; vs control animals): enhanced
ischemic lesions (JCR:LA-cp rat; vs control animals): reduced
islet cell hyperplasia (JCR:LA-cp rat; vs control animals): lower levels
sensitivity to insulin (JCR:LA-cp rat; vs control animals): greater
stress induced myocardial infarct (JCR:LA-cp rat; vs control animals): reduced
structural remodeling (e.g., enlargement of the heart) (JCR:LA-cp rat; vs control animals): reduced
tolerance to glucose (JCR:LA-cp rat; vs control animals): greater
vascular contractility (JCR:LA-cp rat; vs control animals): decreased
vascular relaxation (JCR:LA-cp rat; vs control animals): increased
level of silica (% SiO2) (aqueous solution 0.5 g/l): 17.5%
level of silica (% SiO2) (aqueous solution 10 g/l, 1 hour): 11.8%
level of silica (% SiO2) (aqueous solution 10 g/l, 2 hours): 10.8%
level of silica (% SiO2) (aqueous solution 10 g/l, 24 hours): 9.2%
level of silica (% SiO2) (aqueous solution 10 g/l, time 0): 17.5%
urinary silicon output vs baseline [4]: increased more than tenfold

arginine silicate
bone mineral density ([5]; after several months): optimal level of bone density
serum N-telopeptide of collagen type I and osteocalcin (markers of bone resorption and formation) ([5]; after several weeks): returned to their normal ranges
blood lipid concentrations (cholesterol and triglycerides) (overweight subject): reduced
glucose metabolism (overweight subject): normalized

Cl.N=C(N)NCCC[C@H](N)C(=O)O [arginine HCl, reference compound]
Slope [1]: −1.03 +/− 0.14
Maximum contraction [1]: 1.84 ± 0.07 g
Bradykinin response Maximum response relative flow [2]: 1.48 +/− 0.55
Coronary flow [2]: 10.5 ± 0.3 mL/min
Reactive hyperemia [2]: 170 +/− 11** %
Maximum Relaxation [3]: 90.4 +/− 3.5%
Slope [3]: −0.673 +/− 0.093
thymic weight (normal rodents): increased
